According to US9238657B2, “Cephalosporin having catechol group” (SHIONOGI & CO., LTD., priority 2008, dated 2016):
Values after ≈ are worked out from the molar mass of the structure shown. Read-outs that look alike come from different tables or passages of the source.

What was measured:
Experiment in all cases: Minimum Inhibitory Concentration (MIC), agar plate incubation
Format in all cases: cell-based
[1] = test system: Stenotrophomonas maltophilia SR21970
Description: (§1) Measurement of Minimum Inhibitory Concentration (MIC, microg/ml) was conducted according to the standard method of the Japan Society for Chemotherapy, and the amount of bacteria for inoculation was 1000 cfu/spot, and sensitive disc medium was used as the test medium, and conducted using agar plate incubation.
(§2) In the tables, a unit of the values of inhibitory activity is microg/ml (μg/ml).
(§3) Bacterial strains described in the above tables and enzyme (beta-lactamase) produced thereby are explained in Table 7.

[2] = test system: Pseudomonas aeruginosa SR24
Description: as §1, §2, §3

[3] = test system: Pseudomonas aeruginosa SR27060
Description: as §1, §2, §3

[4] = test system: Klebsiella pneumoniae ATCC 700603
Description: as §1, §2, §3

[5] = test system: Acinetobacter baumannii SR24396
Description: as §1, §2, §3

[6] = Stenotrophomonas maltophilia SR21970 (L-1, MBL producer strain, carbapenem resistant), 1000 cfu/spot, sensitive disc medium, read-out: Minimum Inhibitory Concentration (MIC)
[7] = Pseudomonas aeruginosa SR24 (no enzyme, Ceftazidime sensitive strain), 1000 cfu/spot, sensitive disc medium, read-out: Minimum Inhibitory Concentration (MIC)
[8] = Pseudomonas aeruginosa SR27060 (IMP-1, MBL producer strain, carbapenem resistant), 1000 cfu/spot, sensitive disc medium, read-out: Minimum Inhibitory Concentration (MIC)
[9] = ATCC700603, Klebsiella pneumoniae ATCC 700603 (SHV-18, ESBL producer strain), 1000 cfu/spot, sensitive disc medium, read-out: Minimum Inhibitory Concentration (MIC)
[10] = Acinetobacter baumannii SR24396 (no enzyme), 1000 cfu/spot, sensitive disc medium, read-out: Minimum Inhibitory Concentration (MIC)
[11] = Pseudomonas aeruginosa, SR24, read-out: Minimum Inhibitory Concentration (MIC)
[12] = Pseudomonas aeruginosa, SR27060, read-out: Minimum Inhibitory Concentration (MIC)
[13] = Klebsiella pneumoniae, ATCC700603, read-out: Minimum Inhibitory Concentration (MIC)
[14] = Acinetobacter baumannii, SR24396, read-out: Minimum Inhibitory Concentration (MIC)

MIC [1, 6] [µg/mL] | MIC [2, 7] [µg/mL] | MIC [3, 8] [µg/mL] | MIC [4, 9] [µg/mL] | MIC [5, 10] [µg/mL] | Structure (SMILES) | MIC [2, 11] [µg/mL] | MIC [3, 12] [µg/mL] | MIC [4, 13] [µg/mL] | MIC [5, 14] [µg/mL] | MIC ([1]; Stenotrophomonas maltophilia, SR21970, read-out: Minimum Inhibitory Concentration (MIC)) [µg/mL]
0.25 (≈ 0.312 µM) | 0.063 (≈ 0.0787 µM) | 0.125 (≈ 0.156 µM) | 0.125 (≈ 0.156 µM) | 0.125 (≈ 0.156 µM) | CC(C)(O/N=C(\C(=O)N[C@@H]1C(=O)N2C(C(=O)[O-])=C(C[N+]3(CCNC(=O)c4cc(Cl)c(O)c(O)c4Cl)CCCCC3)CS[C@H]12)c1csc(N)n1)C(=O)O [Compound I-19] |  |  |  |  | 
2 (≈ 2.72 µM) | 0.125 (≈ 0.17 µM) | 0.25 (≈ 0.34 µM) | 0.5 (≈ 0.679 µM) | 0.125 (≈ 0.17 µM) | C=C(O/N=C(\C(=O)N[C@@H]1C(=O)N2C(C(=O)[O-])=C(C[N+]3(CCNC(=O)c4ccc(O)c(O)c4Cl)CCCC3)CS[C@H]12)c1csc(N)n1)C(=O)O [II-1] |  |  |  |  | 
 |  |  |  |  | CC(C)(O/N=C(\C(=O)N[C@@H]1C(=O)N2C(C(=O)[O-])=C(C[N+]3(CCNC(=O)c4ccc(O)c(O)c4Cl)CCCCCC3)CS[C@H]12)c1csc(N)n1)C(=O)O [Compound I-8] | 0.031 (≈ 0.0397 µM) | 0.125 (≈ 0.16 µM) | 0.125 (≈ 0.16 µM) | 0.25 (≈ 0.32 µM) | 
0.5 (≈ 0.654 µM) | 0.063 (≈ 0.0824 µM) | 0.5 (≈ 0.654 µM) | 0.125 (≈ 0.164 µM) | 0.125 (≈ 0.164 µM) | Nc1nc(/C(=N/OC2(C(=O)O)CCC2)C(=O)N[C@@H]2C(=O)N3C(C(=O)[O-])=C(C[N+]4(CCNC(=O)c5ccc(O)c(O)c5Cl)CCCC4)CS[C@H]23)cs1 [II-24] |  |  |  |  | 
 | 0.031 | 0.125 | 0.031 | 0.125 | C[C@H](O/N=C(\C(=O)N[C@@H]1C(=O)N2C(C(=O)[O-])=C(C[N+]3(CCNC(=O)c4cc(Cl)c(O)c(O)c4Cl)CCCCC3)CS[C@H]12)c1nc(N)sc1Cl)C(=O)[O-].[Na+] [Compound I-23] |  |  |  |  | 
0.5 (≈ 0.683 µM) | 0.063 (≈ 0.0861 µM) | 0.125 (≈ 0.171 µM) | 0.25 (≈ 0.342 µM) | 0.5 (≈ 0.683 µM) | CC(C)(O/N=C(\C(=O)N[C@@H]1C(=O)N2C(C(=O)[O-])=C(C[N+]3(CCNC(=O)c4ccc(O)c(O)c4)CCCCC3)CS[C@H]12)c1csc(N)n1)C(=O)O [Compound I-17] |  |  |  |  | 
2 (≈ 2.71 µM) | 0.125 (≈ 0.169 µM) | 0.25 (≈ 0.339 µM) | 0.5 (≈ 0.677 µM) | 0.125 (≈ 0.169 µM) | C[C@H](O/N=C(\C(=O)N[C@@H]1C(=O)N2C(C(=O)[O-])=C(C[N+]3(CCNC(=O)c4ccc(O)c(O)c4Cl)CCCC3)CS[C@H]12)c1csc(N)n1)C(=O)O [II-22] |  |  |  |  | 
0.5 (≈ 0.653 µM) | 0.063 (≈ 0.0822 µM) | 0.25 (≈ 0.326 µM) | 0.125 (≈ 0.163 µM) | 0.25 (≈ 0.326 µM) | CC(C)(O/N=C(\C(=O)N[C@@H]1C(=O)N2C(C(=O)[O-])=C(C[N+]3(CCNC(=O)c4ccc(O)c(O)c4Cl)CCCCC3)CS[C@H]12)c1csc(N)n1)C(=O)O [Compound I-18] |  |  |  |  | 
 |  |  |  |  | NC(=O)C[C@H](O/N=C(\C(=O)N[C@@H]1C(=O)N2C(C(=O)[O-])=C(C[N+]3(CCNC(=O)c4ccc(O)c(O)c4Cl)CCCC3)CS[C@H]12)c1csc(N)n1)C(=O)O [II-4] | 0.125 (≈ 0.16 µM) | 0.25 (≈ 0.32 µM) | 0.5 (≈ 0.64 µM) | 0.25 (≈ 0.32 µM) | 1 (≈ 1.28 µM)
1 | 0.125 | 0.25 | 0.5 | 0.25 | Nc1nc(/C(=N/O/C(=C/C(=O)O)C(=O)O)C(=O)N[C@@H]2C(=O)N3C(C(=O)O)=C(C[N+]4(CCNC(=O)c5ccc(O)c(O)c5Cl)CCCC4)CS[C@H]23)cs1 [II-10] |  |  |  |  | 
 | 0.125 (≈ 0.166 µM) | 0.25 (≈ 0.332 µM) | 0.5 (≈ 0.665 µM) | 0.5 (≈ 0.665 µM) | C[C@H](O/N=C(\C(=O)N[C@@H]1C(=O)N2C(C(=O)[O-])=C(C[N+]3(CCN(C)C(=O)c4ccc(O)c(O)c4)CCCC3)CS[C@H]12)c1nc(N)sc1Cl)C(=O)O [Compound I-25] |  |  |  |  | 

Structure (SMILES) | MIC [1, 6] [µg/mL] | MIC [2, 7] [µg/mL] | MIC [3, 8] [µg/mL] | MIC [4, 9] [µg/mL] | MIC [5, 10] [µg/mL] | MIC [2, 11] [µg/mL] | MIC [3, 12] [µg/mL] | MIC [4, 13] [µg/mL] | MIC [5, 14] [µg/mL] | MIC ([1]; Stenotrophomonas maltophilia, SR21970, read-out: Minimum Inhibitory Concentration (MIC)) [µg/mL]
CC(C)[C@H](O/N=C(\C(=O)N[C@@H]1C(=O)N2C(C(=O)[O-])=C(C[N+]34CCC(CNC(=O)c5ccc(O)c(O)c5Cl)(CC3)CC4)CS[C@H]12)c1csc(N)n1)C(=O)[O-].[Na+] [II-25] | 1 | 0.063 | 0.25 | 0.25 | 0.25 |  |  |  |  | 
